Results as given in patent publication US20230059785A1, “METHODS FOR ENHANCING T CELLS USING VENETOCLAX” (University Health Network, priority 2020, published 2023).

Tests used:
[1] = tested on: DNTs treated with 400 nM Ven; assay: Co-treatment of DNT cells with Venetoclax and ROS scavenger NAC; assay type: cell-based, human
Procedure: (C) To determine the functional relevance of increased ROS level in Ven treated DNTs, ROS level in DNTs treated with 400 nM Ven in the presence of various concentrations of ROS-scavenger, N-acetylcysteine (NAC), and these cells were used as effector cells against AML during an in vitro killing assay. The result shown is representative of three independent experiments. […] (H-K) DNT (H and I) or Tconv cells (J and K) were treated with 0 nM, 100 nM, or 400 nM Venetoclax for 4 hours, 18 hours and 2 days. Cells were stained with CellROX (H and J) or MitoSOX (I and K). MFI of cellular or mitochondrial (mt) ROS was measured by flow cytometry. Data represent the mean ±SEM of results from four different donor T cells. (L) DNTs treated with 400 nM Venetoclax with or without 2 mM NAC for 18 hours. […] MFI of CD25 and CD69 were measured by flow cytometry. Experiments were done in triplicates, and the data shown is representative of two independent experiments done using DNTs from two donors. (M) DNT cells were treated with 400 nM Venetoclax for 18 hours.

OCI-AML2 [2] = assay: DNT cells pre-treated with Bcl-2 family protein inhibitors, used as effectors against OCI-AML2; details: overnight pre-treatment, different concentrations
Text: FIG. 5. […] (A) DNT cells were pre-treated with different concentrations of Obatoclax, ABT-737, or Venetoclax overnight and were used as effector cells against OCI-AML2. […] (C) Expression of Bcl-xL and Bcl-2 on ex vivo expanded DNT cells from three donors (UPN38, UPN108, and UPN134) and AML cell lines, OCI-AML2, TEX, NB4, and K562 determined by Western blot. Tubulin was used as a loading control.
As Bcl-2 is well-known to protect cells from apoptosis, one would expect that inhibiting this pathway would lead to increased T cell apoptosis and dampened T cell function.

[3] = tested on: human AML cell line, OCI-AML2; assay: Drug screening assay: DNT cells pretreated with 269 approved drugs, then used as effectors against AML; assay type: cell-based; details: DNT cells treated at 400 nM overnight, washed, cultured with AML cells two hours; library of 269 drugs
Procedure: FIG. 1. Drug screening assay identifies Venetoclax as the top hit for enhancing cytotoxicity of T cells against AML. Schematic diagram of drug screening assay done to identify clinically approved drugs that can be used in combination with DNT cells to yield in synergistic anti-tumor activity. DNT cells were treated with 269 different clinically approved drugs at 400 nM for overnight. Subsequently, compound-treated cells were washed and then cultured with AML cells for two-hours.
To identify molecules that increase the potency of T cell mediated cytotoxicity against AML, ex vivo expanded DNT cells were used as a surrogate for anti-leukemic T cells and pretreated with a compound library of 269 drugs approved for various clinical uses. Subsequently, compound-treated cells were used as effectors against human AML cell line, OCI-AML2.

[4] = tested on: AML cell lines, OCI-AML2, OCI-AML3, and KG1a; assay: In vitro killing assay with Ven-pretreated DNT cells against AML cell lines; assay type: cell-based, human; details: Ven 50, 100, 200, 400 nM overnight
Procedure: (§1) FIG. 2. Venetoclax enhances T cell mediated cytotoxicity against AML in vitro. (A) To validate the finding from the drug screening, in vitro killing assay was conducted with DNT cells untreated or pretreated with various concentrations of Ven (50 nM, 100 nM, 200 nM, 400 nM) for overnight against AML cell lines, OCI-AML2, OCI-AML3, and KG1a. The data is representative of four biological replicates. (B) In vitro cytotoxicity assay using DNT cells pretreated with 400 nM Ven as effectors against primary AML patient samples (n=17). (C) To determine the activity of DNT cells with or without Ven-treatment against leukemia initiating cells, untreated AML or AML treated with untreated or Ven-treated DNT cells were seeded at 10^3 cells per ml in a methylcellulose-based colony forming assay, and the number of colonies formed were determined 10 days after. The experiment was done with OCI-AML2 and KG1a, as well as patient samples 140372, 100857, 110162 and 141065. […] The experiment was done using DNT cells from two different donors (UPN119 and UPN38). (E) Correlation between the susceptibility of AML to DNT cells and the degree of increase in DNT cell-mediated cytotoxicity by Ven treatment. […] Subsequently, they were cultured with OCI-AML2 at 1:1, 2:1, or 4:1 DNT:AML ratio, and the viability of AML cells were measured by Annexin V staining and flow cytometry. […]

[5] = tested on: primary AML patient samples; assay type: cell-based, human
Procedure: as §1, with “UPN38).” for “UPN38). (E) Correlation between the susceptibility of AML to DNT cells and the degree of increase in DNT cell-mediated cytotoxicity by Ven treatment.”
FIG. 11. […] The increase in DNT-mediated cytotoxicity by Venetoclax treatment was determined against each patient sample type. […]

DNTs [6] = assay: Viability of DNTs treated with Venetoclax (Annexin V staining and flow cytometry); assay type: cell-based, human; details: Venetoclax 18 h
Procedure: FIG. 10. […] (A) Viability of DNTs and OCI-AML2 cells treated with 400 nM Venetoclax for 18 hours was determined by Annexin V staining and flow cytometry. (B and C) DNTs were treated with increasing concentrations of Venetoclax for 18 h. Subsequently, their viability (B) and cytotoxicity (C) against OCI-AML2 and two primary AML cells (090765 and 110162) were determined. ANOVA was used for statistics. ****p<0.0001.

[7] = tested on: AML cell lines, OCI-AML2, OCI-AML3, and KG1a; assay: In vitro killing assay with Ven-pretreated Tconv cells against AML cell lines; assay type: cell-based, human; details: Ven 25-400 nM
Procedure: FIG. 4(A). Venetoclax enhances anti-leukemic activity of CD4^+ or CD8^+ conventional T cells. Ex vivo expanded Tconv cells untreated or treated with various concentrations of Ven (25 nM, 50 nM, 100 nM, 200 nM, or 400 nM), were used as effector cells against AML cell lines, OCI-AML2, OCI-AML3, and KG1a. The result shown represents four biological replicates. FIG. 4(B).
While treating DNT cells with Ven to enhance their anti-leukemic activity may be beneficial for DNT-therapy, experiments were performed to determine whether Ven has an effect on the anti-leukemic activity of CD4^+ or CD8^+ conventional T (Tconv) cells as Tconv cells are more wildly used as cancer immunotherapy clinically. To this end, polyclonally activated Tconv cells were pre-treated with different concentrations of Ven prior to their co-culture with […]

OCI-AML2 [8] = assay: Time course of Venetoclax treatment of DNT and Tconv cells, cytotoxicity against OCI-AML2; assay type: cell-based, human; details: DNTs and Tconv cells; Venetoclax 100 nM and 400 nM; 4 hours up to 3 days
Procedure: (§2) Venetoclax rapidly and directly increases cytotoxicity of T cells against AML. DNT (top panels) and Tconv cells (bottom panels) untreated or treated with Venetoclax (100 nM and 400 nM) for 4 h, 18 h, and 3 days. Subsequently, their cytotoxicity against OCI-AML2 was determined. Data represent the mean ±SEM of results from four different donor T cells. FIG. 4(C). DNT and Tconv cells untreated or treated with Venetoclax (100 nM or 400 nM) for 4 hours. Subsequently, their viability was determined. Data represent the mean ±SEM of results from four different donor T cells.
(§3) To elucidate the underlying mechanism by which Ven-mediates increased cytotoxicity of T cells, the expression of T cell activation markers and effector molecules on DNT cells with or without Ven treatment was compared. […] Thus, Venetoclax directly activates effector T cells to increase their cytotoxicity without depleting naïve or inhibitory T cell subsets.

DNT and Tconv cells = assay: Viability of DNT and Tconv cells after Venetoclax treatment; assay type: cell-based, human; details: Venetoclax 100 nM or 400 nM, 4 hours
Procedure: as §2, §3

DNT cells = assay: Glycolysis, glycolytic capacity and oxygen consumption rate of DNT cells; assay type: cell-based, human
[9] = tested on: autologous and allogeneic PBMCs; assay: Cytotoxicity of DNT cells against normal blood cells; assay type: cell-based, human; details: PBMCs from healthy donors
Text: To determine if Ven increases the cytotoxicity of DNT cells against normal blood cells, autologous and allogeneic PBMCs from healthy donors were used as targets.

DNTs [10] = assay: Effect of other ROS-inducing reagents on DNT ROS level and viability; details: 18 hours; cytarabine 0-3 μM, antimycin 0-250 nM, daunorubicin 0-10 μM
Procedure: (§4) FIG. 15. Effect of other known ROS-inducing reagents on DNT viability, ROS level, and cytotoxicity against AML. DNTs were treated with increasing concentrations of cytarabine (0-3 μM), antimycin (0-250 nM) or daunorubicin (0-10 μM) for 18 hours. Subsequently, the level of cellar ROS in the DNTs (A), DNT viability (B), and cytotoxicity against OCI-AML2 (C) were determined.
(§5) To determine the effect of other ROS-inducing agents on DNT-mediated cytotoxicity, DNTs were treated with increasing concentrations of cytarabine, daunorubicin, and antimycin.

OCI-AML2 [11] = assay: Effect of other ROS-inducing reagents on DNT cytotoxicity against OCI-AML2; details: 18 hours; cytarabine 0-3 μM, antimycin 0-250 nM, daunorubicin 0-10 μM
Procedure: as §4, §5

CC(=O)N[C@@H](CS)C(=O)O [NAC, N-acetylcysteine]
upregulation of activation markers (CD25 and CD69) by Venetoclax ([1]; 400 nM Venetoclax with 2 mM NAC, 18 hours): blocked the upregulation of activation markers
DNT cell-mediated cytotoxicity against AML ([1]; co-treatment with 400 nM Ven): abrogated the effect of Venetoclax on DNT cell-mediated cytotoxicity against AML
cellular ROS level in Venetoclax-treated DNT cells ([1]; co-treatment with 400 nM Ven): reduced the cellular ROS level

COC1=CC(c2cc3ccccc3[nH]2)=N/C1=C\c1[nH]c(C)cc1C [Obatoclax]
effect on DNT cells and their cytotoxicity against OCI-AML2 (OCI-AML2 [2]): induced DNT cell death or inhibited their cytotoxicity

CC1(C)CCC(CN2CCN(c3ccc(C(=O)NS(=O)(=O)c4ccc(NCC5CCOCC5)c([N+](=O)[O-])c4)c(Oc4cnc5[nH]ccc5c4)c3)CC2)=C(c2ccc(Cl)cc2)C1 [Venetoclax]
change in cytotoxicity mediated by DNT cells against AML cells relative to untreated DNT cells [3]: increased the cytotoxicity of DNT cells the most
cytotoxicity of Ven-pretreated DNT cells against AML cell lines [4]: increased cytotoxicity of DNT cells against three different AML cell lines, AML2-OCI, AML3-OCI, and KG1a, in a dose-dependent manner
correlation between susceptibility of AML to DNT cells and degree of increase in DNT cell-mediated cytotoxicity by Ven treatment [5]: clear inverse correlation
viability of DNTs (DNTs [6]): without reducing the viability of the DNTs
cytotoxicity of Ven-pretreated Tconv cells against AML cell lines [7]: significant enhancement of cytotoxicity of Tconv cells
T cell cytotoxicity against AML after different treatment times (OCI-AML2 [8]): increased T cell cytotoxicity against AML
T cell viability (DNT and Tconv cells): without changing the T cell viability
glycolysis, glycolytic capacity, and basal oxygen consumption rate of DNT cells (DNT cells): no significant effect
killing of autologous and allogeneic PBMCs by Ven-treated DNT cells [9]: insignificant degree of killing

Nc1ccn([C@@H]2O[C@H](CO)[C@@H](O)[C@@H]2O)c(=O)n1 [cytarabine]
level of cellular ROS in DNTs (DNTs [10]): Increased ROS levels

COc1cccc2c1C(=O)c1c(O)c3c(c(O)c1C2=O)C[C@@](O)(C(C)=O)C[C@@H]3O[C@H]1C[C@H](N)[C@H](O)[C@H](C)O1 [daunorubicin]
level of cellular ROS in DNTs (DNTs [10]): lower ROS level

antimycin
DNT viability (DNTs [10]): no to little loss of viability
level of cellular ROS in DNTs (DNTs [10]): Increased ROS levels
DNT-mediated cytotoxicity against OCI-AML2 (OCI-AML2 [11]): did not enhance the cytotoxicity of DNTs
